Measured values from patent publication US5277897A, “In vivo enhancement of cellular accumulation of lipophilic cationic organometallic compounds by reduction of intramembrane potential” (Brigham and Women's Hospital, priority 1992, dated 1994).

Experiments:
[1] = diagnostic pharmaceutical; cited from earlier work
[2] = system: cultured chick heart cells; experiment: Effect of valinomycin on tetraphenylborate enhancement of Tc-MIBI accumulation in high Ko buffer (Table 1); assay type: cell-based; conditions: for Tc-MIBI Net Uptake: n = 3
Experimental: Monolayers of spontaneously contractile chick ventricular myocardial cells were obtained from disaggregated 10-day old chick embryo hearts by a slight modification of previously published methods (Horres, C. R., et al., In Pinson, A. (ed.), The Heart Cell in Culture, Boca Raton, CRC Press, pp. 77-108 (1987)). Hearts were trimmed of connective tissue and atria, finely minced and serially exposed to 0.024% (w/v) trypsin in Ca^2+ - and Mg^2+ - free Earle's salt solution for 7 minutes at 37° C. Gentle trituration and agitation on an orbital shaker bath aided disaggregation. Cells released from the first exposure were discarded and cells aspirated from the next four exposures were then added to an equal volume of trypsin deactivating solution consisting of ice-cold culture medium. Cells were centrifuged at 400 g for 10 minutes, resuspended and combined in culture medium, counted with a hemocytometer and diluted to yield a suspension of 5×10^5 cells/ml. 12 ml of suspension were incubated in 100 mm plastic culture dishes containing 7 coverslips (25 mm diameter) placed on the bottom of each dish to serve as substrate for cell growth. Cells were maintained in a humidified atmosphere of 5% CO2 /95% air for 3-4 days yielding a confluent layer of spontaneously contractile myocytes on each coverslip.
Radioactive uptake methods have been described in detail (Piwnica-Worms, D., et al, Circ. (in press). Briefly, coverslips with confluent cells were removed from culture media and pre-equilibrated for 40-60 seconds in MEBSS buffer. Uptake and retention experiments were initiated by immersion of coverslips in 60 mm glass Pyrex dishes containing loading solution consisting of buffer with 0.1-0.6 nM [^99m Tc-MIBI] (0.01-0.4 Ci/nmole; 25-100 uCi/ml). Preparations were removed at various times and rinsed three times in 25 ml volumes of ice-cold (2° C.) isotope-free buffer for 8 seconds each to clear extracellular spaces. Preparations and aliquots of the loading buffer and stock solutions were counted in a well-type sodium iodide gamma counter after which cell protein on each coverslip was extracted in 1% sodium dodecylsulfate with 10 mM sodium borate and assayed by the method of Lowry (Lowry, O. H., et al., J. Biol. Chem. 193:265-275 (1951)). Tc-MIBI binding to glass coverslips without cells was used as an estimate of non-specific adhesion to the substrate ([…] obtained with cellular preparations); this value was subtracted from total uptake determinations to derive the cell-associated counts. Use of generator equilibrium equations (Lamson, M. L., et al., i J. Nucl. Med. 16:639-641 (1975)) allowed calculation of absolute moles of Tc-MIBI in solutions and preparations. Results were therefore expressed as fmol cellular Tc-MIBI/mg protein per nM extracellular Tc-MIBI concentration. Division of this value by the cell water space (6.9 ul/mg protein; Chiu, M. L., et al., J. Nucl. Med. (31:1646-1653(1990)) yields a nominal intracellular/extracellular Tc-MIBI accumulation ratio neglecting subcellular compartmentation of the agent.
To further explore the influence of TPB on any potential-independent accumulation of Tc-MIBI in myocytes, preparations were exposed to 130 mM K° 20 mM Clo buffer (Table 1). […] Equilibration of intracellular and extracellular spaces occurred in the presence of high K buffer plus valinomycin under all conditions (in/out ration ~1; P=NS) indicating the lack of any significant potential-independent membrane binding of Tc-MIBI.
Preparations were incubated in high Ko low Clo loading buffer +/- valinomycin (1 ug/ml) for 20 minutes in the presence of TPB (10^-5 M) or for 40 minutes in its absence to determine peak accumulation of Tc-MIBI under each condition. Values are the mean ±SEM. Tc-MIBI in/out ratios were obtained by dividing net uptake values by the cell water space of […] (Chiu, M. L., et al., J. Nucl. 31:1646-1653 (1990)). +p<0.01; * p<0.001 compared to net uptake in 130 mM Ko buffer.

In the case of [C-]#[N+]CC(C)(C)OC.[C-]#[N+]CC(C)(C)OC.[C-]#[N+]CC(C)(C)OC.[C-]#[N+]CC(C)(C)OC.[C-]#[N+]CC(C)(C)OC.[C-]#[N+]CC(C)(C)OC.[Tc] [Tc-MIBI, hexakis(methoxyisobutylisonitrile)technetium(I)], the safety in humans [1] is listed as “shown to be safe in humans as a diagnostic pharmaceutical”, the “Tc-MIBIi/Tc-MIBIo (in/out ratio)” value ([2]; 130 Ko (no TPB)) is listed as 9.5 and the “Tc-MIBI Net Uptake” value ([2]; 130 Ko (no TPB), 40 minutes) is listed as 65.3 ± 5.3 fmol/mg protein/nMo. For the same compound, the “Tc-MIBIi/Tc-MIBIo (in/out ratio)” value ([2]; 130 Ko + TPB 10^-5 M) was 13.6, the “Tc-MIBIi/Tc-MIBIo (in/out ratio)” value ([2]; 130 Ko + TPB 10^-5 M + valinomycin 1 ug/ml) was 1.1 and the “Tc-MIBI Net Uptake” value ([2]; 130 Ko + TPB 10^-5 M + valinomycin 1 ug/ml, 20 minutes, p<0.001 vs 130 mM Ko) was 7.6 ± 0.8 fmol/mg protein/nMo. For the same compound, the “Tc-MIBI Net Uptake” value ([2]; 130 Ko + TPB 10^-5 M, 20 minutes, p<0.01 vs 130 mM Ko) was 93.9 ± 4.4 fmol/mg protein/nMo, the “Tc-MIBIi/Tc-MIBIo (in/out ratio)” value ([2]; 130 Ko + valinomycin 1 ug/ml) was 0.9 and the “Tc-MIBI Net Uptake” value ([2]; 130 Ko + valinomycin 1 ug/ml, 40 minutes, p<0.001 vs 130 mM Ko) was 6.2 ± 0.3 fmol/mg protein/nMo. For the same compound, the “in/out ratio, high K buffer plus valinomycin” value ([2]; all conditions, P=NS) was ~ 1.
